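Assay format: 96-well plates, 48-hour exposure. GI50: concentration for 50% inhibition of growth. TGI marks complete inhibition of growth.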
Key:
Experiment in all cases: inhibition of tumour cell growth, NCI panel, 48 h
786-0 renal = system: 786-0 renal
RXF 393 renal = system: RXF 393 renal
PC-3 prostate = system: PC-3 prostate
SW-620 colon = system: SW-620 colon
SNB-19 CNS = system: SNB-19 CNS
OVCAR-5 ovarian = system: OVCAR-5 ovarian
RPMI-8226 leukemia = system: RPMI-8226 leukemia
NCI/ADR-RES ovarian = system: NCI/ADR-RES ovarian

SMILES	TGI (786-0 renal) [µM]	TGI (RXF 393 renal) [µM]	TGI (PC-3 prostate) [µM]	TGI (SW-620 colon) [µM]	TGI (SNB-19 CNS) [µM]	TGI (OVCAR-5 ovarian) [µM]	TGI (RPMI-8226 leukemia) [µM]	TGI (NCI/ADR-RES ovarian) [µM]	GI50 (786-0 renal) [µM]	GI50 (RXF 393 renal) [µM]	GI50 (PC-3 prostate) [µM]	GI50 (SW-620 colon) [µM]	GI50 (SNB-19 CNS) [µM]	GI50 (OVCAR-5 ovarian) [µM]	GI50 (RPMI-8226 leukemia) [µM]	GI50 (NCI/ADR-RES ovarian) [µM]
COC(=O)[C@]1(C)CCC[C@@]2(C)[C@@H]3C[C@@H]4[C@H]5C[C@@]3(CC[C@@H]21)C[C@@]45C	29.6	38.2	29.3	62.6	26.9	34.2	27.7	32.1	–	–	–	–	–	–	–	–
CCN(CC)CCOc1c(OC)c(Br)cc2c(C)c(C(=O)OC)oc12	6.04	13	1.03	2.04	10.7	9.29	0.834	12.8	1.71	4.17	0.368	0.802	2.31	3.14	0.186	6.45
Cc1ccc2sc3ccc(N)cc3c(=O)c2c1	> 100	> 100	> 100	> 100	> 100	> 100	–	> 100	–	–	–	–	–	–	–	–
[N-]=[N+]=CC(=O)COC(=O)c1ccccc1	> 100	> 100	> 100	> 100	> 100	> 100	> 100	> 100	–	–	–	–	–	–	–	–
CCCCNC(=O)Oc1ccc(/C(=C(/CC)Cc2ccccc2)c2ccc(OCCN3CCCCCC3)cc2)cc1	30	32.1	> 100	42.5	> 100	> 100	52.8	> 100	16.2	17.3	33.2	20.5	39.8	96.3	24	42.1
CCOC(=O)c1c2c(n(Cc3ccccc3)c1C)-c1nc(Cc3ccccc3)[nH]c1C(=O)C2=O	3.29	2.34	3.2	3.28	3.09	3.62	4.93	5.28	1.77	0.87	1.45	1.84	1.72	1.98	1.78	2.51
CSc1nsc(S/C=C\C(=O)c2ccc(C)cc2)n1	28.9	31.9	> 57.6	17.8	> 68.2	49.6	> 100	67.7	14.8	15.9	29	1.3	28.1	22.7	43	25.8
CC[C@]1(O)C[C@@H]2CN(CCc3c([nH]c4ccccc34)[C@@](C(=O)OC)(c3cc4c(cc3OC)N(C)[C@H]3[C@@](O)(C(N)=O)[C@H](O)[C@]5(CC)[C@@H]6C[C@@H]6CN6CC[C@]43[C@@H]65)C2)C1	> 19.3	> 33.3	> 33.3	> 33.3	> 33.3	> 33.3	> 28.7	> 9.84	0.0247	0.0153	< 0.00333	< 0.00333	< 0.00333	0.0912	< 0.00333	0.745
O=C(Nc1ccc(Br)cc1)Nc1nn(C(=O)Nc2ccc(Br)cc2)c2ccccc12	> 100	> 45.9	> 100	> 100	81	> 100	> 100	> 100	34.3	–	> 51.6	> 38.6	23.6	> 100	> 51.7	55.6
COc1cc(/C=C2\CN(C(=O)CCN3CCC(=NO)CC3)C/C(=C\c3cc(OC)c(OC)c(OC)c3)C2=O)cc(OC)c1OC	1.14	0.999	1.12	0.86	1.58	2.28	0.851	> 100	0.355	0.354	0.298	0.273	0.452	0.874	0.268	2.71
CN(C)CCCc1c2ccccc2nc2ccc(Cl)cc12	24.4	28.8	37	98.4	33.5	33.3	96.2	52	–	–	–	–	–	–	–	–
C[C@]12CC[C@@H](OC(=O)N(CCCl)N=O)C[C@@H]1CC[C@@H]1[C@@H]2CC[C@]2(C)C(=O)CC[C@@H]12	16.7	–	> 96	22.6	26	57.7	> 50.8	30.2	0.891	–	11.5	7.67	0.526	27.2	14.8	4.88
CN1c2ccccc2S(=O)(=O)n2c(CCc3ccccc3)nnc21	> 100	> 100	> 100	> 100	> 100	> 100	–	> 100	–	–	–	–	–	–	–	–
CNCCNc1nc2ccccc2c2c(=O)c3cc(F)ccc3sc12	3.09	3.1	3.3	3.24	–	3.21	4.03	3.83	1.59	1.6	1.52	1.66	–	1.65	1.91	1.82
CNCCNc1nc2ccccc2c2c(=O)c3cc(OC)ccc3sc12	3.18	2.7	2.94	2.91	–	3.27	3.41	3.48	1.7	1.39	1.47	1.41	–	1.8	1.62	1.68
O=C(N/N=C/c1ccc(Cl)cc1)c1[nH]c2ccc(Cl)cc2c1-c1ccccc1	> 34.7	1.51	44.8	> 100	> 56.1	> 100	0.0556	–	0.294	0.123	0.2	0.159	0.504	0.573	0.0193	–
COc1nc(C)cc2c(=O)n(-c3ccccc3)n(CC(O)CN3CCN(c4ccc(Cl)cc4)CC3)c(=O)c12 (centres undefined)	> 50	–	> 50	> 50	> 50	> 50	> 50	> 50	25.8	–	25.9	> 50	17.5	> 50	> 50	> 50
